According to ChEMBL document CHEMBL5634076, “Optimization of pyridylpiperazine-based inhibitors of the Escherichia coli AcrAB-TolC efflux pump” (Eur J Med Chem, 2023):
In brackets after ≈: the same amount, converted by molar mass.

Columns and labels:
Escherichia coli [1] = assay: Potentiation of chloramphenicol induced antibacterial activity in Escherichia coli BW25113 assessed as chloramphenicol MIC at 100 uM incubated for 20 hrs by resazurin microtitre assay (reference value: 8 ug/ml); type: functional
Escherichia coli [2] = assay: Potentiation of ciprofloxacin induced antibacterial activity in Escherichia coli BW25113 assessed as fold change in ciprofloxacin MIC at 100 uM incubated for 20 hrs by resazurin microtitre assay; type: functional
[3] = Stability in mouse plasma assessed as half life at 10 uM measured up to 360 mins by LC-MS/MS analysis; type: ADME, cell-free
[4] = target: T1, Multidrug efflux pump subunit AcrB (Escherichia coli (strain K12)) (UniProt P31224); assay: Inhibition of AcrB in Escherichia coli BW25113 assessed as potentiation of pyridomycin-induced antibacterial activity incubated for 20 hrs by resazurin microtitre assay
T1 sequence (whole entry): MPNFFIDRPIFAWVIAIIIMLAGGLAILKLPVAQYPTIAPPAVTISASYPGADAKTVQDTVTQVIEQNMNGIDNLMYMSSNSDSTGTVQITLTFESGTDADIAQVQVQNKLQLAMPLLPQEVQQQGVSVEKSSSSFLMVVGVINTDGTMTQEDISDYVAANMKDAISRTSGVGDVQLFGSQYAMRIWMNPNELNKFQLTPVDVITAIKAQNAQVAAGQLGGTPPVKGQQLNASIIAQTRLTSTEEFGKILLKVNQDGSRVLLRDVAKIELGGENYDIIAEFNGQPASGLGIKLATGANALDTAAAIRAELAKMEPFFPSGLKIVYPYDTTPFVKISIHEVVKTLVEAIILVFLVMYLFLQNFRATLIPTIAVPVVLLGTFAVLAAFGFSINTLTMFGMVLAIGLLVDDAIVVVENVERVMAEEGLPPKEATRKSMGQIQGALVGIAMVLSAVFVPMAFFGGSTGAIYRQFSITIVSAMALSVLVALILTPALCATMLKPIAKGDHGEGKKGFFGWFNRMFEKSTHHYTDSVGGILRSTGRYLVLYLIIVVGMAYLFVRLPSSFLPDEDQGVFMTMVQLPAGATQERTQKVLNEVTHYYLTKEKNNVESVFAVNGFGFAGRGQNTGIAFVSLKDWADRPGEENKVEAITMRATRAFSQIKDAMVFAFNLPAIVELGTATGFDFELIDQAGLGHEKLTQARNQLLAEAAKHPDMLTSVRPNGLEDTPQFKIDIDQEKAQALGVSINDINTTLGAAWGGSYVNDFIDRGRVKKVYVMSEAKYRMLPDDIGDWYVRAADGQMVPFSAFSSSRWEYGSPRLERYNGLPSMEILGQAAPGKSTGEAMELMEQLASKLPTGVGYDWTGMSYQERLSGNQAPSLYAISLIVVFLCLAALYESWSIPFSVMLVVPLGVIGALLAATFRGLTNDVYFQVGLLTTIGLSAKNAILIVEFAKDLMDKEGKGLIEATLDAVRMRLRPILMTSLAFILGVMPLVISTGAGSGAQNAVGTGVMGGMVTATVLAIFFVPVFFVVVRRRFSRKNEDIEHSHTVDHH

Escherichia coli [5] = assay: Selectivity ratio of EC90 for inhibition of AcrB Asp951Asn mutant in Escherichia coli BW25113 to inhibition of AcrB in Escherichia coli BW25113 incubated for 20 hrs by resazurin microtitre assay
Escherichia coli [6] = assay: Inhibition of AcrB Ser450Pro mutant in Escherichia coli BW25113 assessed as potentiation of pyridomycin-induced antibacterial activity incubated for 20 hrs by resazurin microtitre assay
Escherichia coli [7] = assay: Potentiation of piperacillin induced antibacterial activity in Escherichia coli BW25113 assessed as fold change in piperacillin MIC at 100 uM incubated for 20 hrs by resazurin microtitre assay; type: functional
Escherichia coli [8] = assay: Potentiation of oxacillin induced antibacterial activity in Escherichia coli BW25113 assessed as fold change in oxacillin MIC at 100 uM incubated for 20 hrs by resazurin microtitre assay; type: functional
Escherichia coli [9] = assay: Potentiation of fusidic acid induced antibacterial activity in Escherichia coli BW25113 assessed as fusidic acid MIC at 100 uM incubated for 20 hrs by resazurin microtitre assay (Rvb > 128 ug/ml); type: functional
Escherichia coli [10] = assay: Potentiation of chloramphenicol induced antibacterial activity in Escherichia coli BW25113 assessed as fold change in chloramphenicol MIC at 100 uM incubated for 20 hrs by resazurin microtitre assay; type: functional
Escherichia coli [11] = assay: Potentiation of oxacillin induced antibacterial activity in Escherichia coli BW25113 assessed as oxacillin MIC at 100 uM incubated for 20 hrs by resazurin microtitre assay (Rvb > 128 ug/ml); type: functional
Escherichia coli [12] = assay: Potentiation of ciprofloxacin induced antibacterial activity in Escherichia coli BW25113 assessed as ciprofloxacin MIC at 100 uM incubated for 20 hrs by resazurin microtitre assay (reference value: 0.01 ug/ml); type: functional
Escherichia coli [13] = assay: Potentiation of erythromycin induced antibacterial activity in Escherichia coli BW25113 assessed as erythromycin MIC at 100 uM incubated for 20 hrs by resazurin microtitre assay (reference value: 128 ug/ml); type: functional
Escherichia coli [14] = assay: Antibacterial activity against Escherichia coli BW25113 assessed as reduction in bacterial growth incubated for 20 hrs by resazurin microtitre assay; type: functional
Escherichia coli [15] = assay: Selectivity ratio of EC90 for inhibition of AcrB Glu947Gln mutant in Escherichia coli BW25113 to inhibition of AcrB in Escherichia coli BW25113 incubated for 20 hrs by resazurin microtitre assay
Escherichia coli [16] = assay: Potentiation of piperacillin induced antibacterial activity in Escherichia coli BW25113 assessed as piperacillin MIC at 100 uM incubated for 20 hrs by resazurin microtitre assay (reference value: 4 ug/ml); type: functional
Escherichia coli [17] = assay: Potentiation of linezolid induced antibacterial activity in Escherichia coli BW25113 assessed as fold change in linezolid MIC at 100 uM incubated for 20 hrs by resazurin microtitre assay; type: functional
Escherichia coli [18] = assay: Potentiation of novobiocin induced antibacterial activity in Escherichia coli BW25113 assessed as fold change in novobiocin MIC at 100 uM incubated for 20 hrs by resazurin microtitre assay; type: functional
Escherichia coli [19] = assay: Potentiation of linezolid induced antibacterial activity in Escherichia coli BW25113 assessed as linezolid MIC at 100 uM incubated for 20 hrs by resazurin microtitre assay (Rvb > 128 ug/ml); type: functional
Escherichia coli [20] = assay: Inhibition of AcrB Glu947Gln mutant in Escherichia coli BW25113 assessed as potentiation of pyridomycin-induced antibacterial activity incubated for 20 hrs by resazurin microtitre assay
Escherichia coli [21] = assay: Inhibition of AcrB Asp951Asn mutant in Escherichia coli BW25113 assessed as potentiation of pyridomycin-induced antibacterial activity incubated for 20 hrs by resazurin microtitre assay
Escherichia coli [22] = assay: Inhibition of AcrB Ala446Pro mutant in Escherichia coli BW25113 assessed as potentiation of pyridomycin-induced antibacterial activity incubated for 20 hrs by resazurin microtitre assay
Escherichia coli [23] = assay: Potentiation of novobiocin induced antibacterial activity in Escherichia coli BW25113 assessed as novobiocin MIC at 100 uM incubated for 20 hrs by resazurin microtitre assay (reference value: 80 ug/ml); type: functional
[24] = Stability in CD-1 mouse liver microsomes assessed as intrinsic clearance at 1 uM measured up to 40 mins by LC-MS/MS analysis; type: ADME, Microsome; conditions: read-out: CLH
[25] = Solubility of compound in PBS at pH 7.4 incubated for 24 hrs by LC-MS/MS analysis; type: physicochemical
[26] = Stability in CD-1 mouse liver microsomes assessed as half life at 1 uM measured up to 40 mins by LC-MS/MS analysis; type: ADME, Microsome
Escherichia coli [27] = assay: Potentiation of erythromycin induced antibacterial activity in Escherichia coli BW25113 assessed as fold change in erythromycin MIC at 100 uM incubated for 20 hrs by resazurin microtitre assay; type: functional
Escherichia coli [28] = assay: Potentiation of fusidic acid induced antibacterial activity in Escherichia coli BW25113 assessed as fold change in fusidic acid MIC at 100 uM incubated for 20 hrs by resazurin microtitre assay; type: functional
Escherichia coli [29] = assay: Antibacterial activity against Escherichia coli BW25113 harboring acrB deletion mutant assessed as reduction in bacterial growth incubated for 20 hrs by resazurin microtitre assay; type: functional
Escherichia coli [30] = assay: Antibacterial activity against Escherichia coli BW25113 assessed as reduction in bacterial growth incubated for 5 hrs by resazurin reduction assay; type: functional
[31] = target: T1, Multidrug efflux pump subunit AcrB (Escherichia coli (strain K12)); assay: Inhibition of AcrB in Escherichia coli BW25113 assessed as potentiation of pyridomycin-induced antibacterial activity incubated for 5 hrs by resazurin reduction assay
[32] = target: T1, Multidrug efflux pump subunit AcrB (Escherichia coli (strain K12)); assay: Potency index, ratio of BDM88832 EC90 to test compound EC90 for inhibition of AcrAB-TolC in Escherichia coli BW25113
[33] = Solubility of compound in DMSO at > 125 uM; type: physicochemical

Structure (SMILES)	MIC95 (Escherichia coli [1]) [µg/mL]	fold change (FC) (Escherichia coli [2])	EC90 [4] [µM]	Ratio (Escherichia coli [5])	EC90 (Escherichia coli [6]) [µM]	fold change (FC) (Escherichia coli [7])	fold change (FC) (Escherichia coli [8])	MIC95 (Escherichia coli [9]) [µg/mL]	fold change (FC) (Escherichia coli [10])	MIC95 (Escherichia coli [11]) [µg/mL]	MIC95 (Escherichia coli [12]) [ng/mL]	MIC95 (Escherichia coli [13]) [µg/mL]	MIC (Escherichia coli [14])	Ratio (Escherichia coli [15])	MIC95 (Escherichia coli [16]) [µg/mL]	fold change (FC) (Escherichia coli [17])	fold change (FC) (Escherichia coli [18])	MIC95 (Escherichia coli [19]) [µg/mL]	EC90 (Escherichia coli [20]) [µM]	EC90 (Escherichia coli [21]) [µM]	also measured
Cl.Cl.NCCc1nc(-c2cnc(N3CCNCC3)c(Cl)c2)no1	2	>2	8	> 31	> 250	>8	3	32	4	40	< 5	16	> 250 µM	> 31	< 0.5	8	8	16	> 250	> 250	half-life at 10 µM [3]: > 360 min; EC90 (Escherichia coli [22]): > 250 µM; MIC95 (Escherichia coli [23]): 10 µg/mL; microsomal CLint at 1 µM [24]: < 2 µL/min/mg; solubility at 24 h [25]: > 200 µM; half-life at 1 µM [26]: > 40 min; fold change (FC) (Escherichia coli [27]): 8; fold change (FC) (Escherichia coli [28]): 4
CC/C(C)=C1\OC(=O)[C@H](C)[C@H](O)[C@H](Cc2cccnc2)NC(=O)[C@@H](NC(=O)c2ncccc2O)[C@@H](C)OC1=O [PYRIDOMYCIN]													12.5 µg/mL								MIC (Escherichia coli [29]): 0.78 µg/mL (≈ 1.44 µM)
FC(F)(F)c1cnc(N2CCNCC2)c(Cl)c1													> 250 µM								MIC90 (Escherichia coli [30]): > 500 µM; EC90 [31]: 62 µM
Cl.Cl.NCc1cccc(OC(=O)c2cnc(N3CCNCC3)c(Cl)c2)c1	2	>2	0.6	103	> 62	>8	>26	5	4	5	< 5	4	> 250 µM	> 103	< 0.5	>16	64	8	> 62	62	Ratio [32]: 20; EC90 (Escherichia coli [22]): > 62 µM; MIC95 (Escherichia coli [23]): 1.2 µg/mL; solubility at 24 h [25]: 180 µM; fold change (FC) (Escherichia coli [27]): 32; fold change (FC) (Escherichia coli [28]): >26
Cc1noc(-c2cnc(N3CCNCC3)c(Cl)c2)n1.Cl			> 125										> 125 µM								solubility [33]: Soluble
